According to patent publication US20050239656A1, “Pyridine compounds or salts thereof and herbicides containing the same” (priority 2002, published 2005):

Assays:
soybean [1] = experiment: Test Example 1: foliage treatment, upland pot test; type: in vivo, Glycine max Merr.; conditions: crop, active ingredient 500 g/ha, observed 18th to 23rd day, 0 = non-treated, 100 = complete kill
Description: (§1) Upland field soil was put into a 1/170,000 ha pot, and seed of various plants were sown. Then, when the plants reached predetermined leaf stages ((1) barnyardgrass: 1.3 to 2.8 leaf stages, (2) crabgrass: 1.0 to 2.8 leaf stages, (3) green foxtail: 1.3 to 2.6 leaf stages, (4) redroot pigweed: 0.1 to 1.2 leaf stages, (5) prickly sida: 0.1 to 1.2 leaf stages, (6) velvetleaf: 0.1 to 1.2 leaf stages, (7) tall morningglory: 0.1 to 1.5 leaf stages, (8) rice: 1.2 to 2.6 leaf stages, (9) wheat: 1.3 to 2.4 leaf stages, (10) corn, 2.1 to 3.2 leaf stages, (11) soybean: 0.1 to 0.4 leaf stage), a wettable powder or emulsifiable concentrate having the compound of the present invention formulated in accordance with a usual formulation method, was weighed so that the active ingredient would be a predetermined amount, and diluted with water in an amount of 500 L/ha. To the diluted solution, 0.1% (v/v) of agricultural spreader was added. The herbicide thus adjusted was applied by a small size sprayer for foliage treatment. On the 18th to 23rd days after the application of the herbicide, the growth of the respective plants was visually observed, and the herbicidal effects were evaluated by the growth controlling degrees (%) ranging from 0 (equivalent to the non-treated plot) to 100 (complete kill), whereby the results shown in Table 3, were obtained.

redroot pigweed [2] = experiment: Test Example 1: foliage treatment, upland pot test; type: in vivo, Amaranthus retroflexus L.; conditions: active ingredient 500 g/ha, observed 18th to 23rd day, 0 = non-treated, 100 = complete kill
Description: as §1

japanese bulrush = experiment: Test Example 3: paddy pot test, application under submerged conditions; type: in vivo, Scirpus juncoides; conditions: submerged application at 0.5 leaf stage, visually observed 14 days after application, 0 = non-treated, 100 = complete kill
How it was run: (§2)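 Paddy soil pots; seeds sown, lightly covered; flooded 0.5–1 cm in greenhouse; wapato tubers planted day 1–2; flood raised to 3–4 cm. Submerged pipette application at 0.5 leaf / primary leaf stage. Visual score day 14, 0–100%.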

barnyardgrass [3] = experiment: as above; type: in vivo, Echinochloa crus-galli L.; conditions: submerged application at 0.5 leaf stage, visually observed 14 days after application, 0 = non-treated, 100 = complete kill
How it was run: as §2

crabgrass [4] = experiment: Test Example 1: foliage treatment, upland pot test; type: in vivo, Digitaria sanguinalis L.; conditions: active ingredient 500 g/ha, observed 18th to 23rd day, 0 = non-treated, 100 = complete kill
Description: as §1

velvetleaf [5] = experiment: Test Example 1: foliage treatment, upland pot test; type: in vivo, Abutilon theophrasti MEDIC.; conditions: active ingredient 500 g/ha, observed 18th to 23rd day, 0 = non-treated, 100 = complete kill
Description: as §1

green foxtail [6] = experiment: Test Example 1: foliage treatment, upland pot test; type: in vivo, Setaria viridis L.; conditions: active ingredient 500 g/ha, observed 18th to 23rd day, 0 = non-treated, 100 = complete kill
Description: as §1

japanese ribbon wapato = experiment: Test Example 3: paddy pot test, application under submerged conditions; type: in vivo, Sagittaria pygniaea; conditions: submerged application at primary leaf stage, visually observed 14 days after application, 0 = non-treated, 100 = complete kill
How it was run: as §2

corn [7] = experiment: Test Example 1: foliage treatment, upland pot test; type: in vivo, Zea mays L.; conditions: crop, active ingredient 500 g/ha, observed 18th to 23rd day, 0 = non-treated, 100 = complete kill
Description: as §1

rice (var. Nihonbare) = experiment: Test Example 3: paddy pot test, transplanted rice; type: in vivo, Oryza sativa L.; conditions: applied 4th day after transplantation, visually observed 21st day after application, 0 = non-treated, 100 = complete kill
How it was run: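 Visual crop-injury rating (0 = as untreated, 100 = complete kill, %) taken 21 days post-application. Treatment: formulated compound, water-diluted, pipetted into 3–4 cm flood water at a preset active-ingredient dose, 4 days after transplanting 2-leaf Nihonbare rice 3 cm deep in puddled paddy soil.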

rice [8] = experiment: Test Example 1: foliage treatment, upland pot test; type: in vivo, Oryza sativa L.; conditions: crop, active ingredient 500 g/ha, observed 18th to 23rd day, 0 = non-treated, 100 = complete kill
Description: as §1

prickly sida [9] = experiment: Test Example 1: foliage treatment, upland pot test; type: in vivo, Sida spinosa L.; conditions: active ingredient 500 g/ha, observed 18th to 23rd day, 0 = non-treated, 100 = complete kill
Description: as §1

barnyardgrass [10] = experiment: Test Example 1: foliage treatment, upland pot test; type: in vivo, Echinochloa crus-galli L.; conditions: active ingredient 500 g/ha, observed 18th to 23rd day, 0 = non-treated, 100 = complete kill
Description: as §1

prickly sida [11] = experiment: Test Example 2: soil surface treatment, upland pot test; type: in vivo, Sida spinosa L.; conditions: active ingredient 500 g/ha, observed 20th to 28th day
How it was run: (§3)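 Upland soil in pots of 1/170,000 ha is sown; on day 1 after sowing the formulated compound (wettable powder or emulsifiable concentrate, predetermined a.i. amount, water volume 1,500 L/ha) is applied to the soil surface with a small sprayer. Percent control is judged by eye 20–28 days later.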

velvetleaf [12] = experiment: as above; type: in vivo, Abutilon theophrasti MEDIC.; conditions: active ingredient 500 g/ha, observed 20th to 28th day
How it was run: as §3

soybean [13] = experiment: as above; type: in vivo, Glycine max Merr.; conditions: active ingredient 500 g/ha, observed 20th to 28th day
How it was run: as §3

green foxtail [14] = experiment: as above; type: in vivo, Setaria viridis L.; conditions: active ingredient 500 g/ha, observed 20th to 28th day
How it was run: as §3

redroot pigweed [15] = experiment: as above; type: in vivo, Amaranthus retroflexus L.; conditions: active ingredient 500 g/ha, observed 20th to 28th day
How it was run: as §3

corn [16] = experiment: as above; type: in vivo, Zea mays L.; conditions: active ingredient 500 g/ha, observed 20th to 28th day
How it was run: as §3

barnyardgrass [17] = experiment: as above; type: in vivo, Echinochloa crus-galli L.; conditions: active ingredient 500 g/ha, observed 20th to 28th day
How it was run: as §3

crabgrass [18] = experiment: as above; type: in vivo, Digitaria sanguinalis L.; conditions: active ingredient 500 g/ha, observed 20th to 28th day
How it was run: as §3

rice [19] = experiment: as above; type: in vivo, Oryza sativa L.; conditions: active ingredient 500 g/ha, observed 20th to 28th day
How it was run: as §3

SMILES: CC(C)C(c1cnccc1C(F)(F)F)N(C)C(=O)Cc1ccc(C#N)cc1 (racemic) [I-114]
- Growth controlling degree (%) Soybean (soybean [1]): 70%
- Growth controlling degree (%) Redroot pigweed (redroot pigweed [2]): 60%
- Growth controlling degree (%) Japanese bulrush (japanese bulrush; active ingredient 250 g/ha): 95%
- Growth controlling degree (%) Barnyardgrass (barnyardgrass [3]; active ingredient 250 g/ha): 100%
- Growth controlling degree (%) Crabgrass (crabgrass [4]): 80%
- Growth controlling degree (%) Velvetleaf (velvetleaf [5]): 70%
- Growth controlling degree (%) Green foxtail (green foxtail [6]): 70%
- Growth controlling degree (%) Japanese ribbon wapato (japanese ribbon wapato; active ingredient 250 g/ha): 95%
- Growth controlling degree (%) Corn (corn [7]): 60%
- Growth controlling degree (%) Rice (rice (var. Nihonbare); active ingredient 250 g/ha): 30%
- Growth controlling degree (%) Rice (rice [8]): 30%
- Growth controlling degree (%) Prickly sida (prickly sida [9]): 80%
- Growth controlling degree (%) Barnyardgrass (barnyardgrass [10]): 80%

SMILES: CC(C)C(c1cnccc1C(F)(F)F)N(C)C(=O)Cc1ccc(Cl)c(Cl)c1 (stereo not drawn) [I-28]
- Growth controlling degree (%) Prickly sida (prickly sida [11]): 30%
- Growth controlling degree (%) Velvetleaf (velvetleaf [12]): 50%
- Growth controlling degree (%) Soybean (soybean [1]): 60%
- Growth controlling degree (%) Redroot pigweed (redroot pigweed [2]): 80%
- Growth controlling degree (%) Japanese bulrush (japanese bulrush; active ingredient 250 g/ha): 70%
- Growth controlling degree (%) Barnyardgrass (barnyardgrass [3]; active ingredient 250 g/ha): 100%
- Growth controlling degree (%) Crabgrass (crabgrass [4]): 80%
- Growth controlling degree (%) Soyabean (soybean [13]): 0%
- Growth controlling degree (%) Green foxtail (green foxtail [14]): 70%
- Growth controlling degree (%) Redroot pigweed (redroot pigweed [15]): 70%
- Growth controlling degree (%) Corn (corn [16]): 0%
- Growth controlling degree (%) Barnyardgrass (barnyardgrass [17]): 70%
- Growth controlling degree (%) Velvetleaf (velvetleaf [5]): 90%
- Growth controlling degree (%) Green foxtail (green foxtail [6]): 60%
- Growth controlling degree (%) Japanese ribbon wapato (japanese ribbon wapato; active ingredient 250 g/ha): 10%
- Growth controlling degree (%) Corn (corn [7]): 0%
- Growth controlling degree (%) Rice (rice (var. Nihonbare); active ingredient 250 g/ha): 0%
- Growth controlling degree (%) Rice (rice [8]): 0%
- Growth controlling degree (%) Crabgrass (crabgrass [18]): 80%
- Growth controlling degree (%) Prickly sida (prickly sida [9]): 70%
- Growth controlling degree (%) Barnyardgrass (barnyardgrass [10]): 10%

SMILES: CC(C)C(c1cnccc1C(F)(F)F)N(C)C(=O)Cc1ccc(C(F)(F)F)cc1 (stereo not drawn) [I-31]
- Growth controlling degree (%) Prickly sida (prickly sida [11]): 100%
- Growth controlling degree (%) Velvetleaf (velvetleaf [12]): 50%
- Growth controlling degree (%) Soybean (soybean [1]): 90%
- Growth controlling degree (%) Redroot pigweed (redroot pigweed [2]): 80%
- Growth controlling degree (%) Japanese bulrush (japanese bulrush; active ingredient 250 g/ha): 95%
- Growth controlling degree (%) Barnyardgrass (barnyardgrass [3]; active ingredient 250 g/ha): 100%
- Growth controlling degree (%) Crabgrass (crabgrass [4]): 85%
- Growth controlling degree (%) Soyabean (soybean [13]): 50%
- Growth controlling degree (%) Green foxtail (green foxtail [14]): 100%
- Growth controlling degree (%) Redroot pigweed (redroot pigweed [15]): 80%
- Growth controlling degree (%) Corn (corn [16]): 30%
- Growth controlling degree (%) Barnyardgrass (barnyardgrass [17]): 100%
- Growth controlling degree (%) Velvetleaf (velvetleaf [5]): 95%
- Growth controlling degree (%) Green foxtail (green foxtail [6]): 80%
- Growth controlling degree (%) Corn (corn [7]): 70%
- Growth controlling degree (%) Rice (rice (var. Nihonbare); active ingredient 250 g/ha): 20%
- Growth controlling degree (%) Rice (rice [8]): 40%
- Growth controlling degree (%) Crabgrass (crabgrass [18]): 90%
- Growth controlling degree (%) Prickly sida (prickly sida [9]): 80%
- Growth controlling degree (%) Rice (rice [19]): 10%
- Growth controlling degree (%) Barnyardgrass (barnyardgrass [10]): 95%

SMILES: CCOC(=O)N(C)C(c1cnccc1C(F)(F)F)c1cccc2ccccc12 (stereo not drawn) [I-54]
- Growth controlling degree (%) Soybean (soybean [1]): 50%
- Growth controlling degree (%) Redroot pigweed (redroot pigweed [2]): 80%
- Growth controlling degree (%) Japanese bulrush (japanese bulrush; active ingredient 500 g/ha): 70%
- Growth controlling degree (%) Barnyardgrass (barnyardgrass [3]; active ingredient 500 g/ha): 100%
- Growth controlling degree (%) Crabgrass (crabgrass [4]): 95%
- Growth controlling degree (%) Velvetleaf (velvetleaf [5]): 95%
- Growth controlling degree (%) Green foxtail (green foxtail [6]): 50%
- Growth controlling degree (%) Japanese ribbon wapato (japanese ribbon wapato; active ingredient 500 g/ha): 0%
- Growth controlling degree (%) Corn (corn [7]): 50%
- Growth controlling degree (%) Rice (rice (var. Nihonbare); active ingredient 500 g/ha): 20%
- Growth controlling degree (%) Rice (rice [8]): 30%
- Growth controlling degree (%) Prickly sida (prickly sida [9]): 90%
- Growth controlling degree (%) Barnyardgrass (barnyardgrass [10]): 50%

SMILES: CC(C)C(c1cnccc1Cl)N(C)C(=O)Cc1cccc(C(F)(F)F)c1 (stereo not drawn) [I-68]
- Growth controlling degree (%) Soybean (soybean [1]): 10%
- Growth controlling degree (%) Redroot pigweed (redroot pigweed [2]): 70%
- Growth controlling degree (%) Japanese bulrush (japanese bulrush; active ingredient 125 g/ha): 70%
- Growth controlling degree (%) Barnyardgrass (barnyardgrass [3]; active ingredient 125 g/ha): 95%
- Growth controlling degree (%) Crabgrass (crabgrass [4]): 60%
- Growth controlling degree (%) Velvetleaf (velvetleaf [5]): 80%
- Growth controlling degree (%) Green foxtail (green foxtail [6]): 10%
- Growth controlling degree (%) Japanese ribbon wapato (japanese ribbon wapato; active ingredient 125 g/ha): 50%
- Growth controlling degree (%) Corn (corn [7]): 0%
- Growth controlling degree (%) Rice (rice (var. Nihonbare); active ingredient 125 g/ha): 10%
- Growth controlling degree (%) Rice (rice [8]): 0%
- Growth controlling degree (%) Prickly sida (prickly sida [9]): 70%
- Growth controlling degree (%) Barnyardgrass (barnyardgrass [10]): 0%
